Test results: PMC5813806 (ACS chemical neuroscience, 2016)
Several values for one entry are separate records, joined by “and”; a condition that tells them apart may be missing. Equal values may be shown once. Read-outs that look alike come from different tables or passages of the source.

How the values were obtained:
[1] = biological target: T1, human D2 receptor (CHO-D2R) (Homo sapiens, UniProt P14416); test: ERK1/2 phosphorylation; type: cell-based; details: CHO-D2R cells, 1 μM, 5 min
[2] = biological target: T1, human D2 receptor (CHO-D2R); test: [3H]methylspiperone binding to CHO-D2R membranes; details: 10 μM; for Affinity to D2R, high-affinity state (result in words): CHO-D2R membranes pretreated with GDP and Na+, Mg2+ buffer; for Binding to D2R in binding screening (result in words): CHO-D2R, regular binding buffer
[3] = biological target: T2, human D3 receptor (CHO-D3R) (Homo sapiens, UniProt P35462); test: ERK1/2 phosphorylation; type: cell-based; details: for ERK1/2 phosphorylation, functional screening (result in words): CHO-D3R cells, 5 min
[4] = biological target: T2, human D3 receptor (CHO-D3R); test: Agonist-induced [35S]GTPγS binding to CHO-D3R membranes; type: biochemical
[5] = biological target: human D3 receptor (HEK-D3R) (Homo sapiens, UniProt P35462); type: cell-based; details: 1 μM 30 min pretreatment, washes, 1 μM 2 min
[6] = biological target: T3, human D4 receptor (HEK-D4R) (Homo sapiens, UniProt P21917); test: [3H]methylspiperone binding screening at HEK-D4R; details: 10 μM
T3 sequence (P21917 1-419): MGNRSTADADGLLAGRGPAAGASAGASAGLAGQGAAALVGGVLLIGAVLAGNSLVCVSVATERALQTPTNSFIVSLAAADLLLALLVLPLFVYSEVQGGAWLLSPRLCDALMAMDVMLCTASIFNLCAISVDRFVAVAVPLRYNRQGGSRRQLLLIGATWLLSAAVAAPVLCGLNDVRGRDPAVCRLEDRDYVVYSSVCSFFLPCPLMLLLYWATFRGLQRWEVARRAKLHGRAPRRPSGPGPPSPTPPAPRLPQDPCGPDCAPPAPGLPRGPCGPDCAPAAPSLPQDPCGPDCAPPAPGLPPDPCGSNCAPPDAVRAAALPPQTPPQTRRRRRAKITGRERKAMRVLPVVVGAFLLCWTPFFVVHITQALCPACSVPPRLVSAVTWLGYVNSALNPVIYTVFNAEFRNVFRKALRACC

hD3R = hD3R (Homo sapiens, UniProt P35462); test: PathHunter eXpress U2OS D3R β-arrestin-2 recruitment assay; type: cell-based
[7] = biological target: T1, human D2 receptor (CHO-D2R); test: Agonist-induced [35S]GTPγS binding to CHO-D2R membranes; type: biochemical
[8] = biological target: T2, human D3 receptor (CHO-D3R); test: [3H]methylspiperone binding to CHO-D3R membranes; details: for Ki: [3H]methylspiperone competition, two-site analysis

T2 sequence (P35462 whole entry): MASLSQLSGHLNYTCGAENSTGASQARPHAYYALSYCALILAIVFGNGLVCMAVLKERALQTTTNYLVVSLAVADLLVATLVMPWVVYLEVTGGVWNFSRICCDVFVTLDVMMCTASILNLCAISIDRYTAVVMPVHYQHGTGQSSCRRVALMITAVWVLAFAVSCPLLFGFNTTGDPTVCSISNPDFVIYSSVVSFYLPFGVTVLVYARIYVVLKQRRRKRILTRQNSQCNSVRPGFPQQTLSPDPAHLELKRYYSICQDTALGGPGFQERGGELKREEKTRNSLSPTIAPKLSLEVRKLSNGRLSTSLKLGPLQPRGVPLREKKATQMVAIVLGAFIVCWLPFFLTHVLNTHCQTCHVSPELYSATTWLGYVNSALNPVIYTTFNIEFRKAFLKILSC
T1 sequence (P14416 whole entry): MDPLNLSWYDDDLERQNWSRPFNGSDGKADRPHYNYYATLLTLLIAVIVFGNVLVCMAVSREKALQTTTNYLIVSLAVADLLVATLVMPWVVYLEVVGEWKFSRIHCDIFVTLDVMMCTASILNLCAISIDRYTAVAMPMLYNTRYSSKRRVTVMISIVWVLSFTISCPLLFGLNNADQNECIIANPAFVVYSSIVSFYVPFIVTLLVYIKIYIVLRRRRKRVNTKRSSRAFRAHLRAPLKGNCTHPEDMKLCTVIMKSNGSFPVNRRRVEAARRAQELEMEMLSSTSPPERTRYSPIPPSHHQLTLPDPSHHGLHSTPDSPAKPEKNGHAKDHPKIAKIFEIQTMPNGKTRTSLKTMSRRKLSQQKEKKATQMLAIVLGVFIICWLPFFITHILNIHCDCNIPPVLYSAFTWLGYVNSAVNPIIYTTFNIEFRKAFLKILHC
Sequence of hD3R (P35462 whole entry): as the sequence (P35462 whole entry) above
Sequence of human D3 receptor (HEK-D3R) (P35462 whole entry): as above

Compound	ERK1/2 phosphorylation, functional screening (result in words) [1]	Affinity to D2R, high-affinity state (result in words) [2]	Binding to D2R in binding screening (result in words) [2]	ERK1/2 phosphorylation Emax ([3]; CHO-D3R cells treated 5 min at 37 °C, DA = 100)	ERK1/2 phosphorylation, functional screening (result in words) ([3]; 1 μM)	EC50 ([3]; read-out: ERK1/2 phosphorylation EC50, CHO-D3R cells treated 5 min at 37 °C) [nM]	[35S]GTPγS binding Emax ([4]; DA effect defined as 100%)	EC50 ([4]; read-out: [35S]GTPγS binding EC50)	Desensitization of D3R/ERK1/2 signaling on repeated treatment [5]	Binding to D4R in binding screening (result in words) [6]	β-arrestin recruitment Emax (hD3R; perhaps underestimates from incomplete curves)	EC50 (hD3R; read-out: β-arrestin recruitment EC50, 90 min stimulation) [nM]	[35S]GTPγS binding Emax ([7]; D2R, DA effect defined as 100%)	EC50 ([7]; read-out: [35S]GTPγS binding EC50, D2R (CHO-D2R membranes)) [nM]	Binding to D3R in binding screening (result in words) ([8]; CHO-D3R, 10 μM)	Ki ([8]; read-out: Ki-H (high-affinity Ki) to CHO-hD3) [nM]	Ki ([8]; read-out: Ki-L (low-affinity Ki) to CHO-hD3) [nM]	IC50 ([2]; read-out: IC50 for D2R binding, low-affinity state, CHO-D2R in Na+-GTPγS binding buffer) [nM]	Selectivity to D3R in ERK1/2 activation ([3]; CHO-D3R versus CHO-D2R cells, 1 μM)
NCCc1ccc(O)c(O)c1 [DA, dopamine]	significantly evoked ERK1/2 phosphorylation	higher affinity for D2R than in the regular binding buffer	high binding affinity	–	–	–	–	–	–	–	–	–	–	–	–	–	–	–	–
CCCN1CCO[C@@H]2c3cc(O)ccc3OC[C@H]21 [PD128907]	significantly evoked ERK1/2 phosphorylation	higher affinity for D2R than in the regular binding buffer	high binding affinity	100	significantly activated ERK1/2 phosphorylation	7.1 ± 0.5	95.1 ± 2.1 % of DA	1.19 nM and 1.2 nM	significant reduction of ERK1/2 phosphorylation signal	high binding affinity	100 % of PD128907	5.5 ± 0.18	92.8 ± 1.7 % of DA	103 ± 29.6	high binding affinity	3.7 ± 1.6	14.6 ± 3.6	> 10000	–
CC(N)CCc1ccco1 (centres unmarked) [SK603, 4-(fluran-2-yl)butan-2-amine]	–	–	–	–	reduction in functional effect	–	–	–	–	–	–	–	–	–	–	–	–	–	maintained selectivity to D3R
